We go through 21 compounds from patent US20240317721A1, “PYRAZOLYL DERIVATIVES AS INHIBITORS OF THE KRAS MUTANT PROTEIN” (NOVARTIS AG, priority 2021, published 2024).

In this assay the target is KRasG12C (M1-K169, biotinylated on the N-terminus) (Homo sapiens (Human), UniProt P01116, G12C). Briefly: Covalent competition assay: scintillation proximity assay (SPA) quantifying covalent modification of KRASG12C. The class given is binding. Particulars: competition with radiolabeled covalent probe (Compound B/Compound A), 2 hours incubation, 10 nM KRasG12C. In short, it runs like this: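 Scintillation proximity readout after streptavidin bead capture (30 min) of biotinylated KRasG12C(M1-K169):GDP, 10 nM final, which was covalently labelled over 2 h by 25 nM radio-probe plus 475 nM cold probe unless blocked by compound.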
(In general: In a scintillation proximity assay essentially only radioactivity close to the scintillant gives light.)
With `C=CC(=O)N1CC2(CCC(n3nc(N4CCN(C(C)=O)CC4)c(-c4c(Cl)ccc5[nH]ncc45)c3C)C2)C1` (single isomer, unassigned) [Example 53a, 1-(6-(3-(4-acetylpiperazin-1-yl)-4-(5-chloro-1H-indazol-4-yl)-5-methyl-1H-pyrazol-1-yl)-2-azaspiro[3.4]octan-2-yl)prop-2-en-1-one], the IC50 was determined as 4900 nM. As for `C=CC(=O)N1CC2(CC(n3nc(N4CC[C@@H](CN5CCOCC5)CC4(C)C)c(-c4c(Cl)c(Cl)cc5[nH]nc(N)c45)c3C)C2)C1` (single isomer, unassigned) [Example 241a], the IC50 was 8 nM. Consider `C=CC(=O)N1CC2(CC(n3nc(N4[C@H](C)CN(C(C)=O)C[C@@H]4C)c(-c4c(Cl)c(C)cc5[nH]ncc45)c3C)C2)C1` (single isomer, unassigned) [Example 13b], for which the IC50 came out at 2100 nM. As for `C=CC(=O)N1CC2(CC(n3nc(N4CCN(CCOC)C[C@@]4(C)C(F)F)c(-c4c(Cl)c(C)cc5[nH]ncc45)c3C)C2)C1` (single isomer, unassigned) [Example 179a], the IC50 was more than 5000 nM.

As to `C=CC(=O)N1CC2(CC(n3nc(N4CCN(C5CCOC5)CC45CCC5)c(-c4c(Cl)c(C)cc5[nH]ncc45)c3C)C2)C1` (single isomer, unassigned) [Example 132a, 1-(6-(4-(5-chloro-6-methyl-1H-indazol-4-yl)-5-methyl-3-(8-(tetrahydrofuran-3-yl)-5,8-diazaspiro[3.5]nonan-5-yl)-1H-pyrazol-1-yl)-2-azaspiro[3.3]heptan-2-yl)prop-2-en-1-one], the IC50 worked out at 697 nM. The value for `C=CC(=O)N1CC2(CC(n3nc(N4CCC(n5ccnc5)CC4(C)C)c(-c4c(Cl)c(C)cc5[nH]ncc45)c3C)C2)C1` (single isomer, unassigned) [Example 44a, 1-(6-(3-(4-(1H-imidazol-1-yl)-2,2-dimethylpiperidin-1-yl)-4-(5-chloro-6-methyl-1H-indazol-4-yl)-5-methyl-1H-pyrazol-1-yl)-2-azaspiro[3.3]heptan-2-yl)prop-2-en-1-one] was 4600 nM; that for `C=CC(=O)N1CC2(CC(n3nc(N4CCN(CC(C)(C)O)C[C@@]4(C)CC)c(-c4c(Cl)c(C)cc5[nH]ncc45)c3C)C2)C1` (single isomer, unassigned) [Example 164a] was more than 5000 nM. To `C=CC(=O)N1CC2(CC(n3nc(N4CC[C@@H](CN5CCN(C6COC6)C6COCC65)CC4(C)C)c(-c4c(Cl)c(Cl)cc5[nH]ncc45)c3C)C2)C1` (single isomer, unassigned) [Example 281a, 1-(6-(4-(5,6-dichloro-1H-indazol-4-yl)-3-((R)-2,2-dimethyl-4-(((4aS*,7aR*)-4-(oxetan-3-yl)hexahydrofuro[3,4-b]pyrazin-1(2H)-yl)methyl)piperidin-1-yl)-5-methyl-1H-pyrazol-1-yl)-2-azaspiro[3.3]heptan-2-yl)prop-2-en-1-one] belongs 1670 nM. On to `C=CC(=O)N1CC2(CC(n3nc(N4CCN(C[C@@H]5COCCO5)C[C@]4(C)CC)c(-c4c(Cl)c(C)cc5[nH]ncc45)c3C)C2)C1C` (single isomer, unassigned) [Example 199a], for which the half-maximal inhibitory concentration (IC50) was more than 5000 nM. The value for `C=CC(=O)N1CC2(CC(n3nc(N4CCC(O)(CN5CCOCC5)CC4(C)C)c(-c4c(Cl)c(Cl)cc5[nH]ncc45)c3C)C2)C1` (single isomer, unassigned) [Example 237a, 1-(6-(4-(5,6-dichloro-1H-indazol-4-yl)-3-(4-hydroxy-2,2-dimethyl-4-(morpholinomethyl)piperidin-1-yl)-5-methyl-1H-pyrazol-1-yl)-2-azaspiro[3.3]heptan-2-yl)prop-2-en-1-one] was more than 5000 nM; that for `C=CC(=O)N1CC2(CC(n3nc(N4CCC5(CN(C)CCO5)CC4(C)C)c(-c4c(Cl)c(C)cc5[nH]ncc45)c3C)C2)C1` (single isomer, unassigned) [Example 207b, 1-(6-(4-(5-chloro-6-methyl-1H-indazol-4-yl)-5-methyl-3-(4,8,8-trimethyl-1-oxa-4,9-diazaspiro[5.5]undecan-9-yl)-1H-pyrazol-1-yl)-2-azaspiro[3.3]heptan-2-yl)prop-2-en-1-one] was 20 nM. As to `C=CC(=O)N1CC2(CC(n3nc(N4CCC(N(C)C5COC5)CC4(C)C)c(-c4c(Cl)c(Cl)cc5[nH]ncc45)c3C)C2)C1` (single isomer, unassigned) [Example 50a, 1-(6-(4-(5,6-dichloro-1H-indazol-4-yl)-3-(2,2-dimethyl-4-(methyl(oxetan-3-yl)amino)piperidin-1-yl)-5-methyl-1H-pyrazol-1-yl)-2-azaspiro[3.3]heptan-2-yl)prop-2-en-1-one], the IC50 is 273 nM. As to `C=CC(=O)N1CC2(CC(n3nc(N4CCN(C5COC5)C[C@]4(C)CCOC)c(-c4c(Cl)c(C)cc5[nH]ncc45)c3C)C2)C1` (single isomer, unassigned) [Example 86a], the IC50 was 2300 nM. Turning to `C=CC(=O)N1CC2(CC(n3nc(N4CC[C@@H](CN5CC6OCCN(C)C6C5)CC4(C)C)c(-c4c(Cl)c(Cl)cc5[nH]ncc45)c3C)C2)C1` (single isomer, unassigned) [Example 259b, 1-(6-(4-(5,6-dichloro-1H-indazol-4-yl)-3-((R)-2,2-dimethyl-4-(((4aR*,7aS*)-4-methylhexahydropyrrolo[3,4-b][1,4]oxazin-6(2H)-yl)methyl)piperidin-1-yl)-5-methyl-1H-pyrazol-1-yl)-2-azaspiro[3.3]heptan-2-yl)prop-2-en-1-one], the IC50 came to 10 nM. As to `[2H]C1([2H])OC([2H])([2H])C([2H])([2H])N(C[C@@H]2CCN(c3nn(C4CC5(C4)CN(C(=O)C=C)C5)c(C)c3-c3c(Cl)c(Cl)cc4[nH]ncc34)C(C)(C)C2)C1([2H])[2H]` (single isomer, unassigned) [Example 283a], the IC50 worked out at 3000 nM. With `C=CC(=O)N1CC2(CC(n3nc(N4CCN(C5COC5)C[C@]4(C)CC)c(-c4c(Cl)c(Cl)cc5[nH]ncc45)c3C)C2)C1` (single isomer, unassigned) [Example 155b], the IC50 was 5 nM. To `C=CC(=O)N1CC2(CC(n3nc(N4CC[C@@H](CN5CCOC[C@@H](O)C5)CC4(C)C)c(-c4c(Cl)c(Cl)cc5[nH]ncc45)c3C)C2)C1` (single isomer, unassigned) [Example 292a] belongs 1900 nM. On to `C=CC(=O)N1CC2(CC(n3nc(N4CC[C@@H](CN5CC6(C5)CN(C)C(=O)N6C)CC4(C)C)c(-c4c(Cl)c(Cl)cc5[nH]ncc45)c3C)C2)C1` (single isomer, unassigned) [Example 296a], for which the IC50 came out at 392 nM. On to `C=CC(=O)N1CC2(CC(n3nc(N4CCN(C5COC5)C[C@]4(C)COC)c(-c4c(Cl)c(C)cc5[nH]ncc45)c3C)C2)C1` (single isomer, unassigned) [Example 147a], for which the IC50 worked out at 8 nM.

Take `C=CC(=O)N1CC2(CC(n3nc(N4CCN(C(=O)OC)CC4(C)C)c(-c4c(Cl)c(C)cc5[nH]ncc45)c3C)C2)C1` (single isomer, unassigned) [Example 125b, methyl 4-(1-(2-acryloyl-2-azaspiro[3.3]heptan-6-yl)-4-(5-chloro-6-methyl-1H-indazol-4-yl)-5-methyl-1H-pyrazol-3-yl)-3,3-dimethylpiperazine-1-carboxylate]: the IC50 came to 35 nM. In the case of `C=CC(=O)N1CC2(CC(n3nc(N4CCN(C[C@H]5CCCO5)CC45CCC5)c(-c4c(Cl)c(C)cc5[nH]ncc45)c3C)C2)C1` (single isomer, unassigned) [Example 153b], the half-inhibitory concentration (IC50) was found to be 19 nM.

For orientation: IC50 means the midpoint of a concentration-inhibition curve.
